Tests used:
[1] = Estimated Hansen solubility parameters and octanol/water partition coefficient of coalescents
Description: In order to perform the comparative tests, two commercially available products, Texanol™ and OPTIFILM 300™, were used.

[2] = Physical and chemical properties of isopentyl succinate

For isopentyl succinate, which “Solubility in water (suggested by octanol/water partition coefficients)” value [1] is on record?
Its value is “low solubility in water”.

And the Density [2]?
Its Density is 0.966 g/mL.

What about the Freezing point [2] of the same substance?
The Freezing point was −25 °C.

And the Relative evaporation rate [2]?
Its Relative evaporation rate is 0.029.

What about the “Volatile content according to method 24” value ([2]; method 24) of the same substance?
Its value is 50%.

Source: patent US11274214B2, “Composition of water based coating with a low content of volatile organic compounds and high resistance to dirt handle, and, use of water based coating” (OXITENO S.A. INDÚSTRIA E COMÉRCIO, priority 2017, dated 2022)
